PubChem BioAssay AID328 (DTP/NCI, 2004)
“And” between values parts separate entries of the source, which are not always exact repeats. Equal values may be shown once. Toxic doses and inconclusive results are not listed. How the source made its calls: active means survival T/C of 150% or more; inactive means T/C below 125% in these data.

System: BDF1 mice, P388 leukemia ip, median survival T/C
Experiment: NCI In Vivo Anticancer Drug Screen. Data for tumor model P388 Leukemia (intraperitoneal) in B6D2F1 (BDF1) mice
Conditions: endpoint: median survival time, higher = longer survival
How it was run: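 Vehicle-dosed animals serve as the reference; survival of compound-dosed, tumour-implanted mice is divided by it.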

[1] = dose: 100.0 mg/kg/injection, schedule: Q01DX009 (ip), vehicle: saline with Tween-80
[2] = dose: 200.0 mg/kg/injection, schedule: Q01DX009 (ip), vehicle: saline with Tween-80
[3] = dose: 400.0 mg/kg/injection, schedule: Q01DX009 (ip), vehicle: saline with Tween-80
[4] = dose: 50.0 mg/kg/injection, schedule: Q01DX009 (ip), vehicle: saline with Tween-80
[5] = dose: 100.0 mg/kg/injection, schedule: Q01DX009 (ip), vehicle: saline
[6] = dose: 100.0 mg/kg/injection, schedule: Q04DX003 (ip), vehicle: saline
[7] = dose: 200.0 mg/kg/injection, schedule: Q04DX003 (ip), vehicle: saline
[8] = dose: 400.0 mg/kg/injection, schedule: Q04DX003 (ip), vehicle: saline
[9] = dose: 100.0 mg/kg/injection, schedule: Q04DX003 (ip), vehicle: saline with Tween-80
[10] = dose: 200.0 mg/kg/injection, schedule: Q04DX003 (ip), vehicle: saline with Tween-80
[11] = dose: 400.0 mg/kg/injection, schedule: Q04DX003 (ip), vehicle: saline with Tween-80

Measured: T/C

C#CCOCC1CNC(=S)O1 (stereo unspecified)
inactive: [1] 100 % of control | [2] 100 % of control | [3] 100 % of control

O=C(/C=C/c1cccc(O)c1)c1ccccc1
inactive: [4] 91 % of control | [1] 99 % of control | [2] 101 % of control

N#Cc1nc2c(n(O)c1=N)CCCCCCCCCC2
inactive: [4] 95 % of control | [1] 92 % of control | [2] 92 % of control

O=C1C2CCC(C2)[CH]1[Hg][Cl] (stereo unspecified)
inactive: dose: 1.56 mg/kg/injection, schedule: Q01DX009 (ip), vehicle: saline with Tween-80 102 % of control | dose: 3.13 mg/kg/injection, schedule: Q01DX009 (ip), vehicle: saline with Tween-80 103 % of control | dose: 6.25 mg/kg/injection, schedule: Q01DX009 (ip), vehicle: saline with Tween-80 118 % of control

COC(=O)C(NC=O)C(=O)OC
inactive: [5] 100 % of control | [6] 100 % of control | dose: 200.0 mg/kg/injection, schedule: Q01DX009 (ip), vehicle: saline 114 % of control | [7] 90 % of control | dose: 400.0 mg/kg/injection, schedule: Q01DX009 (ip), vehicle: saline 100 % of control | [8] 90 % of control

C/C=C(\C)C(=O)OC1C(=O)OC2CC3C(C)=CC(=O)C(O)C3(C)C3C4(O)OCC23C1C(C)C4O (stereo unspecified)
inactive: dose: 0.06 mg/kg/injection, schedule: Q01DX009 (ip), vehicle: saline with Tween-80 89 % of control | dose: 0.12 mg/kg/injection, schedule: Q01DX009 (ip), vehicle: saline with Tween-80 104 % of control | dose: 0.25 mg/kg/injection, schedule: Q01DX009 (ip), vehicle: saline with Tween-80 98 % of control | dose: 0.5 mg/kg/injection, schedule: Q01DX009 (ip), vehicle: saline with Tween-80 107 % of control | dose: 1.0 mg/kg/injection, schedule: Q01DX009 (ip), vehicle: saline with Tween-80 103 % of control | dose: 2.0 mg/kg/injection, schedule: Q01DX009 (ip), vehicle: saline with Tween-80 104 % of control | dose: 4.0 mg/kg/injection, schedule: Q01DX009 (ip), vehicle: saline with Tween-80 110 % of control | dose: 8.0 mg/kg/injection, schedule: Q01DX009 (ip), vehicle: saline with Tween-80 100 % of control

CCOC(=N)CC(=N)OCC
inactive: dose: 100.0 mg/kg/injection, schedule: Q01DX009 (ip), vehicle: water 103 % of control | dose: 100.0 mg/kg/injection, schedule: Q04DX003 (ip), vehicle: water 104 % of control | dose: 200.0 mg/kg/injection, schedule: Q01DX009 (ip), vehicle: water 103 % of control | dose: 200.0 mg/kg/injection, schedule: Q04DX003 (ip), vehicle: water 100 % of control | dose: 400.0 mg/kg/injection, schedule: Q01DX009 (ip), vehicle: water 101 % of control | dose: 400.0 mg/kg/injection, schedule: Q04DX003 (ip), vehicle: water 100 % of control

Nc1nc(CNc2ccc(Cl)cc2)nc(Nc2ccccc2)n1
inactive: [6] 105 % of control | [7] 100 % of control | [8] 100 % of control

CCC[CH2][Sn]1([CH2]CCC)[O]OC(c2ccc(OC)cc2)[O]1 (stereo unspecified)
inactive: dose: 3.12 mg/kg/injection, schedule: Q01DX009 (sc), vehicle: olive oil, sesame oil, peanut oil 112 % of control | dose: 6.25 mg/kg/injection, schedule: Q01DX009 (sc), vehicle: olive oil, sesame oil, peanut oil 99 % of control

CCOC(=O)C(CC(OCC)OCC)C(=O)OCC
inactive: [1] 100 % of control | [9] 104 % of control | [2] 91 % of control | [10] 113 % of control | [3] 122 % of control | [11] 113 % of control

c1ccc(-c2nc3ncccn3n2)cc1
inactive: dose: 25.0 mg/kg/injection, schedule: Q01DX009 (ip), vehicle: saline with Tween-80 97 % of control | [4] 106 % of control and 111 % of control | [1] 104 % of control and 120 % of control | [2] 104 % of control and 112 % of control

CN(C)Nc1ncnc2nc[nH]c12
inactive: dose: 50.0 mg/kg/injection, schedule: Q01DX009 (ip), vehicle: saline 95 % of control | [5] 91 % of control | [9] 100 % of control | [10] 114 % of control

COc1cc(C=O)cc(O)c1O
inactive: dose: 100.0 mg/kg/injection, schedule: Q01DX009 (ip), vehicle: saline sonified 95 % of control | dose: 176.0 mg/kg/injection, schedule: Q01DX009 (ip), vehicle: saline sonified 91 % of control | dose: 200.0 mg/kg/injection, schedule: Q01DX009 (ip), vehicle: saline sonified 120 % of control | dose: 264.0 mg/kg/injection, schedule: Q01DX009 (ip), vehicle: saline sonified 104 % of control

O=C(CI)Nc1ccc(O)c2ccccc12
inactive: dose: 0.78 mg/kg/injection, schedule: Q01DX009 (ip), vehicle: water 97 % of control | dose: 1.56 mg/kg/injection, schedule: Q01DX009 (ip), vehicle: water 106 % of control | dose: 3.12 mg/kg/injection, schedule: Q01DX009 (ip), vehicle: water 106 % of control | dose: 6.25 mg/kg/injection, schedule: Q01DX009 (ip), vehicle: water 108 % of control | dose: 6.25 mg/kg/injection, schedule: Q04DX003 (ip), vehicle: water 89 % of control | dose: 12.5 mg/kg/injection, schedule: Q01DX009 (ip), vehicle: water 123 % of control | dose: 12.5 mg/kg/injection, schedule: Q04DX003 (ip), vehicle: water 99 % of control | dose: 25.0 mg/kg/injection, schedule: Q04DX003 (ip), vehicle: water 104 % of control

COc1ccc(CCNC(=O)CCN2C(=O)c3ccccc3C2=O)cc1OC
inactive: [9] 104 % of control | [10] 90 % of control | [11] 100 % of control

C=C(C)C(N)C(=O)O (stereo unspecified)
inactive: [9] 118 % of control | [10] 104 % of control | [11] 118 % of control

O[O][Ge]([c]1ccccc1)([c]1ccccc1)[c]1ccccc1
inactive: dose: 100.0 mg/kg/injection, schedule: Q01DX001 (ip), vehicle: Klucel (hydroxypropylcellulose) (HPC) 100 % of control | dose: 200.0 mg/kg/injection, schedule: Q01DX001 (ip), vehicle: Klucel (hydroxypropylcellulose) (HPC) 100 % of control | dose: 400.0 mg/kg/injection, schedule: Q01DX001 (ip), vehicle: Klucel (hydroxypropylcellulose) (HPC) 100 % of control

CC(CC(=O)c1ccccc1)=Nc1ccccc1.CC(CC(=O)c1ccccc1)=Nc1ccccc1.[Cu]
inactive: dose: 100.0 mg/kg/injection, schedule: Q01DX001 (ip), vehicle: saline sonified 100 % of control | dose: 200.0 mg/kg/injection, schedule: Q01DX001 (ip), vehicle: saline sonified 100 % of control | dose: 400.0 mg/kg/injection, schedule: Q01DX001 (ip), vehicle: saline sonified 90 % of control

CC(=O)Nc1cc(C)c2ccc(Cl)nc2n1
inactive: [6] 97 % of control | [7] 92 % of control | [8] 91 % of control

CN=NNCc1ccccc1
inactive: dose: 12.5 mg/kg/injection, schedule: Q01DX005 (ip), vehicle: saline 117 % of control | dose: 25.0 mg/kg/injection, schedule: Q01DX005 (ip), vehicle: saline 86 % of control

CCOC(=O)C(=Cc1c[nH]c2ccccc12)C(=O)OCC
inactive: dose: 45.0 mg/kg/injection, schedule: Q04DX003 (ip), vehicle: saline with Tween-80 109 % of control | dose: 65.0 mg/kg/injection, schedule: Q04DX003 (ip), vehicle: saline with Tween-80 113 % of control | [9] 100 % of control and 105 % of control | dose: 150.0 mg/kg/injection, schedule: Q04DX003 (ip), vehicle: saline with Tween-80 109 % of control | [10] 100 % of control and 118 % of control | [11] 90 % of control and 109 % of control
